Test results taken from patent US7335815B2, “Nucleic acid sequences to proteins involved in isoprenoid synthesis” (Calgene LLC, priority 1999, dated 2008).

Assays:
[1] = test system: E. coli strain JC7623dxr:CAT; experiment: growth of dxr-disrupted E. coli strain JC7623dxr:CAT (ME auxotrophy, complementation studies); assay type: cell-based, Escherichia coli; details: strain JC7623dxr:CAT carrying plasmid pBAD-DXR or pBAD-GFPuv
Text: The region extending from the 5′-region of the dxr gene to the 3′-flanking region of the yaeS gene was amplified by PCR using genomic DNA isolated from the wild type E. coli strain-W3110 (Kohara et al., 1987) and the primers P1(5′-CTCTGGATGT CATATGAAGCAACTC-3′ (SEQ ID NO:3); the underlined ATG corresponds to the translation start codon of the dxr gene) and P2 (5′-CCGCATAACACCGCCAACC-3′ (SEQ ID NO:4); located at the 3′-flanking region of the yaeS gene). The reaction mixture for the PCR was prepared in a final volume of 50 μl, containing the DNA template (100 ng), 0.5 μM of each primer, 200 μM of each deoxynucleoside triphosphate, 20 mM of Tris-HCl adjusted to pH 8.8, 2 mM Of MgSO4, 10 mM of KCI, 10 mM of (NH4)2SO4, 0.1 mg/ml of BSA and 0.1% Triton X-100. The sample was covered with mineral oil, incubated at 94° C. for 3 min and cooled to 80° C. Pfu DNA polymerase (1.25 units, Stratagene) was added and the reaction mixture was incubated for 30 cycles consisting of 45 sec at 94° C., 45 sec at 59° C. and 10 min at 72° C., followed by a final step of 10 min at 72° C. After amplification, adenines were added to the 3′ ends of the PCR product as indicated by the manufacturers protocol and the adenylated product was cloned into the pGEM-T vector (Promega), to create plasmid pMJ1. […]

[2] = background statement; cited from earlier work

| Structure (SMILES) | growth of strain on medium containing the substance [1] | vitamin E activity [2] |
| --- | --- | --- |
| C[C@](O)(CO)[C@H](O)CO [ME, 2-C-methyl-D-erythritol] | grows on medium containing ME | – |
| Cc1c(C)c2c(c(C)c1O)CC[C@@](C)(CCC[C@H](C)CCC[C@H](C)CCCC(C)C)O2 [d-α-tocopherol] | – | 1.49 IU/mg |
| Cc1c(C)c2c(c(C)c1O)CCC(C)(CCCC(C)CCCC(C)CCCC(C)C)O2 (stereo not drawn) [synthetic α-tocopherol, d,l-α-tocopherol] | – | 1.1 IU/mg |
